Numbered stars: 1 amine (or outer) side, 2 acyl side, 3 side chain; on linkers, the order of the positions; unused ones are H or OH. Bridge positions count the residues as written; N and C are the ends. Square brackets hold non-standard residues; d marks the D form. Peptide text beside a SMILES is read from it. Adda = CO[C@@H](Cc1ccccc1)[C@@H](C)/C=C(C)/C=C/[C@H](N[*:1])[C@H](C)C(=O)[*:2]; X1 = CC(C)C[C@H](N[*:1])C(=O)C[C@@H](C(=O)O)[C@H](C)C(=O)[*:2]; NMeDha = C=C(NC)C(=O)O

A short description of the test: Inhibition of microcystin analogues to catalytic subunits of Serine/threonine protein phosphatase 2A (PP2Ac).
`C=C1C(=O)N[C@H](CN)C(=O)N[C@@H](CC(C)C)C(=O)C[C@@H](C(=O)O)[C@H](C)C(=O)N[C@@H](C)C(=O)N[C@@H](/C=C/C(C)=C/[C@H](C)[C@H](Cc2ccccc2)OC)[C@H](C)C(=O)N[C@@H](C(=O)O)CCC(=O)N1C` [11,22-Dicarboxy-25-isobutyl-15-(6-methoxy-3,5-dimethyl-7-phenyl-hepta-1,3-dienyl)-7,14,18,21-tetramethyl-6-methylene-2,5,8,13,17,20,24-heptaoxo-1,4,7,12,16,19hexaaza-cyclopentacos-3-ylmethyl-ammonium] returned an IC50 of 9 nM.
Regarding `CO[C@@H](Cc1ccccc1)[C@@H](C)/C=C(C)/C=C/[C@@H]1NC(=O)[C@H](C)NC(=O)[C@@H](C)[C@H](C(=O)O)CC(=O)[C@H](CC(C)C)NC(=O)[C@@H](C)NC(=O)CN(C2CCCCC2)C(=O)CC[C@H](C(=O)O)NC(=O)[C@H]1C` [7-Cyclohexyl-25-isobutyl-15-(6-methoxy-3,5-dimethyl-7-phenyl-hepta-1,3-dienyl)-3,14,18,21-tetramethyl-2,5,8,13,17,20,24-heptaoxo-1,4,7,12,16,19hexaaza-cyclopentacosane-11,22-dicarboxylic acid], the IC50 was determined as 1.5 nM.
In the case of `C=C1C(=O)N[C@H](C)C(=O)N[C@@H](CC(C)C)C(=O)C[C@@H](C(=O)O)[C@H](C)C(=O)N[C@@H](C)C(=O)N[C@@H](/C=C/C(C)=C/[C@H](C)[C@H](Cc2ccccc2)OC)[C@H](C)C(=O)N[C@@H](C(=O)O)CCC(=O)N1C` [25-Isobutyl-15-(6-methoxy-3,5-dimethyl-7-phenyl-hepta-1,3-dienyl)-3,7,14,18,21-pentamethyl-6-methylene-2,5,8,13,17,20,24-heptaoxo-1,4,7,12,16,19hexaaza-cyclopentacosane-11,22-dicarboxylic acid] ([NMeDha][dA][X1]A[Adda][dE]-OH; lactam N-6) it was 0.3 nM.
Turning to `CO[C@@H](Cc1ccccc1)[C@@H](C)/C=C(C)/C=C/[C@@H]1NC(=O)[C@H](C)NC(=O)[C@@H](C)[C@H](C(=O)O)CC(=O)[C@H](CC(C)C)NC(=O)[C@@H](C)NC(=O)CN(C)C(=O)CC[C@H](C(=O)O)NC(=O)[C@H]1C` [25-Isobutyl-15-(6-methoxy-3,5-dimethyl-7-phenyl-hepta-1,3-dienyl)-3,7,14,18,21-pentamethyl-2,5,8,13,17,20,24-heptaoxo-1,4,7,12,16,19hexaaza-cyclopentacosane-11,22-dicarboxylic acid], 1.5 nM corresponded to half-maximal inhibition (IC50).
The same measure for `C=C1C(=O)N[C@H](C)C(=O)N[C@@H](CC2CCCCC2)C(=O)C[C@@H](C(=O)O)[C@H](C)C(=O)N[C@@H](C)C(=O)N[C@@H](/C=C/C(C)=C/[C@H](C)[C@H](Cc2ccccc2)OC)[C@H](C)C(=O)N[C@@H](C(=O)O)CCC(=O)N1C` [25-Cyclohexylmethyl-15-(6-methoxy-3,5-dimethyl-7-phenyl-hepta-1,3-dienyl)-3,7,14,18,21-pentamethyl-6-methylene-2,5,8,13,17,20,24-heptaoxo-1,4,7,12,16,19hexaaza-cyclopentacosane-11,22-dicarboxylic acid]: 3.4 nM.

For orientation: IC50 means the concentration that gives 50% inhibition. Read a high IC50 as lower potency.

For the origin of these results see BindingDB's records for doi:10.1021/jm010066k (The University of Newcastle, 2002).
